The test system of one series is PNT1-A cells. Description: WST-1 cell viability assay, PNT1-A. In kind it is cell-based, human. The following applies: PNT1-A 24 h. The procedure: (§1) Since it is an unstable amino acid, the medium was supplemented with L-glutamine immediately prior.
(§2) WST-1 Cell Proliferation test, a product of the Roche Company is a colourimetric assay based on the cleavage of a tetrazolium salt by mitochondrial dehydrogenases to generate formazan in living cells. This assay is simple because only 10 μL of WST-1 reactant is added to 100 μL media on a 96-well plate. The cells were counted with a haemocytometer immediately before the subsequent procedures. The HeLa and PNT1A cells were used for seeding, with 5 × 10^3 cells per well, and then incubated overnight in a humidified atmosphere (37 °C with 5% CO2).
(§3) The next day, WST-1 is added to cells treated with S-1 as a cytotoxic reagent and the incubation is continued for an additional 1−2 h in a humidified atmosphere. One of the advantages of the WST-1 test is that colour change (yellow) can be seen with the naked eye.
(§4) After incubation, the plate was shaken well for 1 min. The absorbance is then measured at 450 nm versus a 650 nm reference by using a plate reader (M5, Spectra MAX) and SoftMax Pro software from Molecular Devices to compare experimental samples to controls.
(§5) IC50 is a measure used to estimate the potency of a material that inhibits a specific biological or biochemical function.

For series [1], the system named is HeLa cells. Kind of series: Intracellular total antioxidant status (TAS). The following applies: positive control group. In kind it is cell-based, human. How it is done:
The cellular TAS amount was determined using a new colourimetric assay method, which was improved by Erel[25]. This process is withstanding on the bleaching of the ostensible colour of the 2,2′-azino-bis [3-ethylbenzothiazoline-6-sulfonic acid] (ABTS) radical cation via the action of antioxidants. Upon the addition of a sample, the oxidative reactions initiated by the hydroxyl radicals present in the reaction mixture are inhibited by the antioxidant components of the lysate, preventing colour change and thus providing an effective measure of the TAS value of the lysate. The precision of this test has high accuracy (less than 3% error rate). Analysis results were expressed as mmol Trolox equiv/mg protein.

Series [2] relates to HeLa cells. Description: Oxidative stress index (OSI). Format: cell-based, human. How it is done: Percentage of TOS to TAS amount is taken into account in order to determine the oxidative stress index (OSI)[27]. Oxidative stress index was determined according to the equation outlined below:
OSI = (TOS (μ mol H2O2 equiv/g))/(TAS (μ mol Trolox equiv/g)) × 10

In series [3] the test system is HeLa cells. Kind of series: Intracellular total oxidant status (TOS). Format: cell-based, human. The procedure: The amount of cellular TOS was measured using an automated colourimetric reading process advanced by Erel[26]. In this method, the oxidation reaction is increased by the presence of excess glycerol in the reaction medium. Ferric ion forms a coloured complex with chromogen orange in an acidic environment. The spectrophotometrically measurable colour intensity is concerned to the whole level of oxidant molecules existent in the specimen. The assay is calibrated with H2O2, and the results are expressed in terms of micromolar H2O2 per mg protein (μmol H2O2 Equiv./mg protein).

Series [4] concerns HeLa cells. Description: WST-1 cell viability assay, HeLa. Format: cell-based, human. The note with it: for IC50: WST-1. The procedure:
as §1, §2, §3, §4, §5
We determined the cell viability of CC cell line HeLa grown in 96-well plates for 24, 48, 72 h and treated with increasing concentrations (0, 2.5, 5, 10, 25, 50, 100, 200 μM) of S-1. Cell viability was evaluated with colourimetric WST-1 assay as described previously tested on the splitting of the tetrazolium salt by mitochondria dehydrogenases in viable cell. […] The number of viable cells was then quantified using trypan blue exclusion.
A general note: Formazan colour is commonly taken as a measure of viable cells.

For the next series, the target named is CA-IX. The note with it: read-out: Ki value of CA-IX; cited from earlier work.
The nature of series [5]: Stability of the imine bond in the assay medium. In kind it is physicochemical.

Regarding `N.N.[Cl][Pt][Cl]` [Cisplatin, cisplatin, reference compound], the IC50 stood at 13.4 µM in the series on PNT1-A cells, 28.9 µM in the series with HeLa cells [4] (HeLa 24 h), 7.6 µM with HeLa cells [4] (HeLa 48 h) and 6.1 µM in the series on HeLa cells [4] (HeLa 72 h). Further, the TAS value with HeLa cells [1] is given as 0.67 mmol Trolox equiv/mg protein. The compound further displayed an OSI value in the series on HeLa cells [2] (positive control, from TOS and TAS) of 1.72. In addition, the TOS level in the series on HeLa cells [3] (positive control group) is reported as 11.49 μmol H2O2 Equiv./mg protein.

For the compound `NS(=O)(=O)c1ccc(N=Cc2cc(Cl)cc(Cl)c2O)cc1` [S-1, 4-[(3,5-Dichloro-2-hydroxybenzylidene)amino]benzenesulfonamide], the IC50 is 198 µM in the series on PNT1-A cells (Homo sapiens, PNT1A); 25.2 µM in the series on HeLa cells [4] (Homo sapiens, HeLa 24 h); 42.9 µM with HeLa cells [4] (Homo sapiens, HeLa 48 h); 84.1 µM in the series with HeLa cells [4] (Homo sapiens, HeLa 72 h). Further, at CA-IX, the inhibition constant Ki is 0.0356 µM. Also, in the series on HeLa cells [2] (100 μM concentration), the “OSI value compared with Cisplatin” value is “too close to the level of Cisplatin”. For the same compound, in series [5], the “stability in the assay medium” value is reported as “stable”. The “TOS level compared with Cisplatin” value in the series with HeLa cells [3] (doses 50, 100 µM) was “nearly same effect as Cisplatin”. The viability at 200 µM with HeLa cells [4] (Homo sapiens, HeLa, 200 μM, 48 h incubated, read-out: greatest viability loss) worked out at 5.5%.

A word on the IC50: it is the concentration that inhibits the measured activity by half. For orientation: Ki means a dissociation constant, usually derived from enzyme kinetics or from competition with a known ligand. What is called viability is a per cent measure of how many cells are alive, often set against a control.
